Data as given in PMC12072002, “Site-Directed Mutagenesis Increased the Catalytic Activity and Stability of Oenococcus oeni β-Glucosidase: Characterization of Enzymatic Properties and Exploration of Mechanisms” (International Journal of Molecular Sciences, 2025).
Read-outs that look alike come from different tables or passages of the source.

Key:
Format in all cases: biochemical, Oenococcus oeni SD-2a
[1] = tested on: wild-type enzyme (β-glucosidase BGL0224); assay: Effects of metal ions and additives on enzyme activity (p-NPG hydrolysis, IC50); details: for effect on enzyme activity of the wild-type enzyme: in words; for IC50 / IC50 on Wild-Type Enzyme: metal ions and additives, Concentration 5 mM, optimum temperature and pH
Description: (§1) The method for the determination of the effects of different metal ions and additives on enzyme activity was referred to Zhou et al., with slight modifications. To determine the effects of metal ions and some additives on the BGLs’ activity, lyophilized powders of the wild-type and mutant BGLs were formulated into solutions with a final concentration of 10 mg/mL using 20 mM sodium phosphate buffer as well as 25 mM of p-NPG substrate solution and different concentrations (0.1 mM, 0.5 mM, 1.0 mM, 5.0 mM and 10 mM) of metal ion solutions (K^+, Na^+, Li^+, Ag^+, Mg^2+, Zn^2+, Ba^2+, Ca^2+, Cu^2+, Mn^2+, Fe^2+ and Fe^3+) and additive solutions (SDS, DTT, EDTA, TritonX-100 and Tween-80). The enzyme solutions (10 μL), p-NPG solution (490 μL) and different concentrations of additive solutions (500 μL) were mixed well. The reaction lasted for 30 min under the optimal reaction conditions of the enzyme. Then, 1mL 1 M Na2CO3 was added to terminate the reaction. The absorbance value of the reaction system was measured at 420 nm and the activity of the BGLs was calculated according to the standard curve. The IC50 (half of the maximum inhibitory concentration) of the reagents on BGL activity was calculated using a logistic function with Growth/Sigmoidal-type nonlinear fitting in Origin Pro 8.0.

[2] = tested on: mutant III (β-glucosidase F133K); assay: as above; details: for effect on enzyme activity of mutant III: in words; for IC50 / IC50 on Mutant III: metal ions and additives, Concentration 5 mM, optimum temperature and pH
Description: as §1

[3] = tested on: mutant IV (β-glucosidase N181R); set-up: key to IC50 on Mutant IV: “-”represents no enzymatic activity; details: for effect on enzyme activity of mutant IV: in words
Description: The method for the determination of the effects of different metal ions and additives on enzyme activity was referred to Zhou et al., with slight modifications. […] The enzyme solutions (10 μL), p-NPG solution (490 μL) and different concentrations of additive solutions (500 μL) were mixed well. The reaction lasted for 30 min under the optimal reaction conditions of the enzyme. Then, 1mL 1 M Na2CO3 was added to terminate the reaction. The absorbance value of the reaction system was measured at 420 nm and the activity of the BGLs was calculated according to the standard curve. The IC50 (half of the maximum inhibitory concentration) of the reagents on BGL activity was calculated using a logistic function with Growth/Sigmoidal-type nonlinear fitting in Origin Pro 8.0.

[4] = target: wild-type enzyme (β-glucosidase BGL0224); assay: Effects of metal ions and additives on enzyme activity (p-NPG hydrolysis, IC50); set-up: key: “-”represents no enzymatic activity; details: additive concentration 0.2%
[5] = target: mutant III (β-glucosidase F133K); assay: as above; set-up: key: “-”represents no enzymatic activity; details: additive concentration 0.2%
[6] = metal ions and additives, Concentration 5 mM, optimum temperature and pH

| Compound | effect on enzyme activity of the wild-type enzyme ([1]; metal ion at 5 mM) | IC50 [1] | effect on enzyme activity of mutant III ([2]; metal ion at 5 mM) | IC50 [2] | effect on enzyme activity of mutant IV ([3]; metal ion at 5 mM) | IC50 [3, 6] | further results |
| --- | --- | --- | --- | --- | --- | --- | --- |
| [Ag+] [Ag^+] | inhibitory effects | 7.43 mM | inhibitory effects | 3.03 mM | inhibitory effects | 2.93 mM |  |
| [Ba+2] [Ba^2+] | enhanced |  | enhanced |  | enhanced |  | IC50 on Wild-Type Enzyme [1]: Activator; IC50 on Mutant III [2]: Activator; IC50 on Mutant IV [3, 6]: Activator |
| [Ca+2] [Ca^2+] | inhibitory effects | 4.09 mM | inhibitory effects | 3.38 mM | inhibitory effects | 3.28 mM |  |
| [Cu+2] [Cu^2+] | inhibitory effects | 3.12 mM | inhibitory effects | 3.48 mM | inhibitory effects | 1.58 mM |  |
| O[C@@H](CS)[C@@H](O)CS [DTT] |  | 7.93 mM |  | 5.49 mM |  | 6.17 mM |  |
| O=C(O)CN(CCN(CC(=O)O)CC(=O)O)CC(=O)O [EDTA] |  | 6.41 mM |  | 6.89 mM |  | 7.16 mM |  |
| [Fe+2] [Fe^2+] | inhibitory effects | 2.83 mM | inhibitory effects | 3.96 mM | inhibitory effects | 4.43 mM |  |
| [K+] [K^+] | enhanced |  | enhanced |  |  | 2.42 mM | IC50 on Wild-Type Enzyme [1]: Activator; IC50 on Mutant III [2]: Activator; inhibition rate on mutant IV ([3]; metal ion at 5 mM): 85.02% |
| [Li+] [Li^+] | enhanced |  | enhanced |  | enhanced |  | IC50 on Wild-Type Enzyme [1]: Activator; IC50 on Mutant III [2]: Activator; IC50 on Mutant IV [3, 6]: Activator |
| [Mg+2] [Mg^2+] | inhibitory effects | 8.92 mM | inhibitory effects | 3.37 mM | inhibitory effects | 5.35 mM |  |
| [Mn+2] [Mn^2+] |  | 3.76 mM | promoted |  | promoted |  | inhibition of wild-type enzyme activity ([1]; metal ion at 5 mM): 76.51%; IC50 on Mutant III [2]: Activator; IC50 on Mutant IV [3, 6]: Activator |
| [Na+] [Na^+] | increased |  |  | 0.929 mM | increased |  | IC50 on Wild-Type Enzyme [1]: Activator; inhibition rate on mutant III ([2]; metal ion at 5 mM): 97.45%; IC50 on Mutant IV [3, 6]: Activator |
| CCCCCCCCCCCCOS(=O)(=O)[O-].[Na+] [SDS] |  | 7.89 mM |  | 6.72 mM |  | 6.29 mM |  |
| [Zn+2] [Zn^2+] | inhibitory effects | 3.87 mM | inhibitory effects | 3.19 mM | inhibitory effects | 2.94 mM |  |
| Triton X-100 [Triton-X100] |  |  |  |  |  |  | IC50 on Mutant IV ([3]; additive concentration 0.2%): -; IC50 on Wild-Type Enzyme [4]: -; IC50 on Mutant III [5]: - |
| Tween-80 |  |  |  |  |  |  | IC50 on Mutant IV ([3]; additive concentration 0.2%): -; IC50 on Wild-Type Enzyme [4]: -; IC50 on Mutant III [5]: - |
